Target: T1, IRAK4 (Homo sapiens, UniProt Q9NWZ3)
T1 construct: expression of target proteins in cells; endogenous in cells
T1 sequence (Q9NWZ3 1-460): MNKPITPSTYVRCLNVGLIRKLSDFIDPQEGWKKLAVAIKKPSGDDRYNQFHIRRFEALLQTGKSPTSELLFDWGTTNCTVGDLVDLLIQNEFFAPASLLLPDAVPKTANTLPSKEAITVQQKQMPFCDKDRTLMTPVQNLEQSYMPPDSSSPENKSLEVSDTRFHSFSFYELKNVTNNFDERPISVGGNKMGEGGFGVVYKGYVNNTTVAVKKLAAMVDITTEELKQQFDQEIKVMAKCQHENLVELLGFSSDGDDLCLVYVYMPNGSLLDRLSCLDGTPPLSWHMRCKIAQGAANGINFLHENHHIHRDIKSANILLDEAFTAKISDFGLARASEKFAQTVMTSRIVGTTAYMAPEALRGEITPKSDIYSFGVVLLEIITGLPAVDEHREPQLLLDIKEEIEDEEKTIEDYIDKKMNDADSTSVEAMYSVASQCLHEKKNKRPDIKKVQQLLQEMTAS
Test: Western blot degradation of IRAK4
Assay type: cell-based
Conditions: hPBMC Cell; 24 hours
Description: Conventional Western blot assay was performed to evaluate the effects of the compounds of the present disclosure on the expression of target proteins in cells.
(1) Cell Seeding and Protein Harvesting: The selected cells were processed according to the cell seeding procedure and protein harvesting procedure in Table II-2.
(2) To the collected supernatant, 5×SDS sample loading buffer was added, followed by denaturation at 95 °C for 5 minutes. The denatured samples were then separated by SDS-PAGE electrophoresis on a polyacrylamide gel. Proteins were transferred to a nitrocellulose membrane (0.45 μm NC membrane), blocked with blocking buffer at room temperature for 1 hour, and subjected to antibody incubation and development procedures according to the antibody manufacturer's instructions (Cell Signaling Technology).
Half-Maximal Degradation Concentration value (the drug concentration required for degrading proteins by 50%, abbreviated as DC50) reads method: comparing the grayscale values of Western blot bands from drug-treated samples with those from blank DMSO-treated controls, and identifying the drug concentration range at which the grayscale value is half that of the DMSO-treated control bands.
DC50 values can be calculated using ImageJ software to measure grayscale values of Western blot bands from drug-treated samples. The concentration-response curve is fitted to estimate the drug concentration corresponding to half the grayscale value.
Target protein remaining (%) refers to the percentage of target protein remaining in cells after treatment with protein degrader compounds.
Calculation method for target protein remaining (%): Use ImageJ software to measure grayscale values of Western blot bands from drug (protein degrader)-treated samples. The grayscale value of drug-treated bands is divided by that of internal control protein bands, and the resulting quotient is normalized to obtain the relative percentage of remaining target protein after protein degrader treatment.
Target protein degradation rate (%)=1−target protein remaining (%).

Degradation of substrate protein IRAK4 (substrate protein remaining %) | Compound
A (0%≤substrate protein remaining %≤80%) | O=C1CCN(N2C(=O)c3ccc(N4CCC(N5CCN(C[C@H]6CC[C@H](n7cc(NC(=O)c8cnn9ccc(N%10C[C@H]%11C[C@@H]%10CO%11)nc89)c(C(F)F)n7)CC6)CC5)CC4)cc3C2=O)C(=O)N1 [GT-05122, 5-((1R,4R)-2-oxa-5-azabicyclo[2.2.1]heptan-5-yl)-N-(3-(difluoromethyl)-1-((1r,4R)-4-((4-(1-(2-(2,4-dioxotetrahydropyrimidin-1(2H)-yl)-1,3-dioxoisoindolin-5-yl)piperidin-4-yl)piperazin-1-yl)methyl)cyclohexyl)-1H-pyrazol-4-yl)pyrazolo[1,5-a]pyrimidine-3-carboxamide]
A (0%≤substrate protein remaining %≤80%) | COc1cc2nn(C3CCN(Cc4ccc5c(c4)CN(N4CCC(=O)NC4=O)C5=O)CC3)cc2cc1NC(=O)c1cccc(C(F)(F)F)c1 [GT-04876, N-(2-(1-((2-(2,4-dioxotetrahydropyrimidin-1(2H)-yl)-1-oxoisoindolin-5-yl)methyl)piperidin-4-yl)-6-methoxy-2H-indazol-5-yl)-3-(trifluoromethyl)benzamide]
A (0%≤substrate protein remaining %≤80%) | COc1cc2nn([C@H]3CC[C@H](CN4C5CC4CN(c4ccc6c(c4)C(=O)N(N4CCC(=O)NC4=O)C6=O)C5)CC3)cc2cc1NC(=O)c1cccc(C(F)(F)F)c1 [GT-08666, N-(2-((1r,4r)-4-((3-(2-(2,4-dioxotetrahydropyrimidin-1(2H)-yl)-1,3-dioxoisoindolin-5-yl)-3,6-diazabicyclo[3.1.1]heptan-6-yl)methyl)cyclohexyl)-6-methoxy-2H-indazol-5-yl)-3-(trifluoromethyl)benzamide]
A (0%≤substrate protein remaining %≤80%) | COc1cc2nn([C@H]3CC[C@H](CN4CC5CCC4CN5c4ccc5c(c4)C(=O)N(N4CCC(=O)NC4=O)C5=O)CC3)cc2cc1NC(=O)c1cccc(C(F)(F)F)c1 (stereo partly drawn) [GT-08673, N-(2-((1r,4r)-4-((5-(2-(2,4-dioxotetrahydropyrimidin-1(2H)-yl)-1,3-dioxoisoindolin-5-yl)-2,5-diazabicyclo[2.2.2]octan-2-yl)methyl)cyclohexyl)-6-methoxy-2H-indazol-5-yl)-3-(trifluoromethyl)benzamide]
A (0%≤substrate protein remaining %≤80%) | COc1cc2nn(C3CCN(CC4CCN(c5cccc6c5C(=O)N(N5CCC(=O)NC5=O)C6=O)CC4)CC3)cc2cc1NC(=O)c1cccc(C(F)(F)F)c1 [GT-05815, N-(2-(1-((1-(2-(2,4-dioxotetrahydropyrimidin-1(2H)-yl)-1,3-dioxoisoindolin-4-yl)piperidin-4-yl)methyl)piperidin-4-yl)-6-methoxy-2H-indazol-5-yl)-3-(trifluoromethyl)benzamide]
A (0%≤substrate protein remaining %≤80%) | COc1cc2nn([C@H]3CC[C@H](CN4CCN(C5CCN(c6ccc7c(c6)C(=O)N(N6CCC(=O)NC6=O)C7=O)CC5)CC4)CC3)cc2cc1NC(=O)c1cccc(C(F)(F)F)n1 [GT-08658, N-(2-((1r,4r)-4-((4-(1-(2-(2,4-dioxotetrahydropyrimidin-1(2H)-yl)-1,3-dioxoisoindolin-5-yl)piperidin-4-yl)piperazin-1-yl)methyl)cyclohexyl)-6-methoxy-2H-indazol-5-yl)-6-(trifluoromethyl) picolinamide]
A (0%≤substrate protein remaining %≤80%) | O=C1CCN(N2C(=O)c3ccc(N4CCC(N5CCN(C[C@H]6CC[C@H](n7cc(NC(=O)c8cnn9ccc(N%10C[C@H]%11C[C@@H]%10CO%11)nc89)c(C(F)F)n7)CC6)CC5)C(F)(F)C4)cc3C2=O)C(=O)N1 (stereo partly drawn) [GT-05123]
A (0%≤substrate protein remaining %≤80%) | CC(C)Nc1cc(-n2ccc3cc(C#N)cnc32)ncc1C(=O)NC1CCN(CC2CCN(c3cccc4c3C(=O)N(N3CCC(=O)NC3=O)C4=O)CC2)CC1 [GT-05814, 6-(5-cyano-1H-pyrrolo[2,3-b]pyridin-1-yl)-N-(1-((1-(2-(2,4-dioxotetrahydropyrimidin-1(2H)-yl)-1,3-dioxoisoindolin-4-yl)piperidin-4-yl)methyl)piperidin-4-yl)-4-(isopropylamino) nicotinamide]
A (0%≤substrate protein remaining %≤80%) | COc1cc2nn([C@H]3CC[C@H](CN4C[C@@H]5C[C@H]4CN5c4ccc5c(c4)C(=O)N(N4CCC(=O)NC4=O)C5=O)CC3)cc2cc1NC(=O)c1cccc(C(F)(F)F)c1 [GT-08662, N-(2-((1S,4r)-4-(((1S,4S)-5-(2-(2,4-dioxotetrahydropyrimidin-1(2H)-yl)-1,3-dioxoisoindolin-5-yl)-2,5-diazabicyclo[2.2.1]heptan-2-yl)methyl)cyclohexyl)-6-methoxy-2H-indazol-5-yl)-3-(trifluoromethyl)benzamide]
A (0%≤substrate protein remaining %≤80%) | COc1cc2nn([C@H]3CC[C@H](CN4CCN(c5cccc6c5C(=O)N(N5CCC(=O)NC5=O)C6=O)CC4)CC3)cc2cc1NC(=O)c1cccc(C(F)(F)F)n1 [GT-08655, N-(2-((1r,4r)-4-((4-(2-(2,4-dioxotetrahydropyrimidin-1(2H)-yl)-1,3-dioxoisoindolin-4-yl)piperazin-1-yl)methyl)cyclohexyl)-6-methoxy-2H-indazol-5-yl)-6-(trifluoromethyl) picolinamide]
A (0%≤substrate protein remaining %≤80%) | COc1cc2nn(C3CCN(CC4CCN(c5ccc6c(c5)C(=O)N(N5CCC(=O)NC5=O)C6=O)CC4)CC3)cc2cc1NC(=O)c1cccc(C(F)(F)F)c1 [GT-04877, N-(2-(1-((1-(2-(2,4-dioxotetrahydropyrimidin-1(2H)-yl)-1,3-dioxoisoindolin-5-yl)piperidin-4-yl)methyl)piperidin-4-yl)-6-methoxy-2H-indazol-5-yl)-3-(trifluoromethyl)benzamide]
A (0%≤substrate protein remaining %≤80%) | COc1cc2nn([C@H]3CC[C@H](CN4CCN(c5cc(F)c6c(c5)C(=O)N(N5CCC(=O)NC5=O)C6=O)CC4)CC3)cc2cc1NC(=O)c1cccc(C(F)(F)F)c1 [GT-08670, N-(2-((1r,4r)-4-((4-(2-(2,4-dioxotetrahydropyrimidin-1(2H)-yl)-7-fluoro-1,3-dioxoisoindolin-5-yl)piperazin-1-yl)methyl)cyclohexyl)-6-methoxy-2H-indazol-5-yl)-3-(trifluoromethyl)benzamide]
A (0%≤substrate protein remaining %≤80%) | COc1ccc2cn(C3CCN(CC4CCN(c5ccc6c(c5)C(=O)N(N5CCC(=O)NC5=O)C6=O)CC4)CC3)nc2c1NC(=O)c1cccc(C(F)(F)F)c1 [GT-04885, N-(2-(1-((1-(2-(2,4-dioxotetrahydropyrimidin-1(2H)-yl)-1,3-dioxoisoindolin-5-yl)piperidin-4-yl)methyl)piperidin-4-yl)-6-methoxy-2H-indazol-7-yl)-3-(trifluoromethyl)benzamide]
A (0%≤substrate protein remaining %≤80%) | COc1cc2nn([C@H]3CC[C@H](CN4CC5CCC4CN5c4ccc5c(c4)C(=O)N(N4CCC(=O)NC4=O)C5=O)CC3)cc2cc1NC(=O)c1cccc(C(F)(F)F)n1 (stereo partly drawn) [GT-08660, N-(2-((1r,4r)-4-((5-(2-(2,4-dioxotetrahydropyrimidin-1(2H)-yl)-1,3-dioxoisoindolin-5-yl)-2,5-diazabicyclo[2.2.2]octan-2-yl)methyl)cyclohexyl)-6-methoxy-2H-indazol-5-yl)-6-(trifluoromethyl) picolinamide]
A (0%≤substrate protein remaining %≤80%) | COc1cc2nn(C3CCN(Cc4ccc5c(c4)C(=O)N(N4CCC(=O)NC4=O)C5=O)CC3)cc2cc1NC(=O)c1cccc(C(F)(F)F)c1 [GT-05078, N-(2-(1-((2-(2,4-dioxotetrahydropyrimidin-1(2H)-yl)-1,3-dioxoisoindolin-5-yl)methyl)piperidin-4-yl)-6-methoxy-2H-indazol-5-yl)-3-(trifluoromethyl)benzamide]
